Experimental data from PubChem BioAssay AID1259407 (Chemical Carcinogenesis Research Information System (CCRIS), 2018).
The source made the active and inactive calls. How the calls were made is not given here.

Test system: CCRIS mutagenicity, Ames/micronucleus/aberration tests
Test: CCRIS mutagenicity studies
[1] = Test System: AMES SALMONELLA TYPHIMURIUM, Strain/Indicator: TA98, Metabolic Activation: NONE, Method: STANDARD PLATE
[2] = Test System: AMES SALMONELLA TYPHIMURIUM, Strain/Indicator: TA100, Metabolic Activation: NONE, Method: STANDARD PLATE
[3] = Test System: AMES SALMONELLA TYPHIMURIUM, Strain/Indicator: TA1537, Metabolic Activation: NONE, Method: STANDARD PLATE
[4] = Test System: AMES SALMONELLA TYPHIMURIUM, Strain/Indicator: TA1538, Metabolic Activation: NONE, Method: STANDARD PLATE
[5] = Test System: AMES SALMONELLA TYPHIMURIUM, Strain/Indicator: TA98, Metabolic Activation: RAT, LIVER, S-9, AROCLOR 1254, Method: STANDARD PLATE
[6] = Test System: AMES SALMONELLA TYPHIMURIUM, Strain/Indicator: TA100, Metabolic Activation: RAT, LIVER, S-9, AROCLOR 1254, Method: STANDARD PLATE

In the case of OC[C@@H](O)[C@@H](O[C@@H]1O[C@H](CO)[C@H](O)[C@H](O)[C@H]1O)[C@H](O)[C@@H](O)CO, the mutagenic call (Test System: AMES SALMONELLA TYPHIMURIUM, Strain/Indicator: TA98, Metabolic Activation: NONE, Method: PREINCUBATION) is reported as “inactive; negative”, the mutagenic call (Test System: AMES SALMONELLA TYPHIMURIUM, Strain/Indicator: TA98, Metabolic Activation: RAT, LIVER, S-9, PHENOBARBITAL AND 5,6-BENZOFLAVONE, Method: PREINCUBATION) is reported as “inactive; negative” and the mutagenic call (Test System: AMES SALMONELLA TYPHIMURIUM, Strain/Indicator: TA100, Metabolic Activation: NONE, Method: PREINCUBATION) is reported as “inactive; negative”. For the same compound, the mutagenic call (Test System: AMES SALMONELLA TYPHIMURIUM, Strain/Indicator: TA100, Metabolic Activation: RAT, LIVER, S-9, PHENOBARBITAL AND 5,6-BENZOFLAVONE, Method: PREINCUBATION) was “inactive; negative”, the mutagenic call (Test System: AMES SALMONELLA TYPHIMURIUM, Strain/Indicator: TA1535, Metabolic Activation: NONE, Method: PREINCUBATION) was “inactive; negative” and the mutagenic call (Test System: AMES SALMONELLA TYPHIMURIUM, Strain/Indicator: TA1535, Metabolic Activation: RAT, LIVER, S-9, PHENOBARBITAL AND 5,6-BENZOFLAVONE, Method: PREINCUBATION) was “inactive; negative”. For the same compound, the mutagenic call (Test System: AMES SALMONELLA TYPHIMURIUM, Strain/Indicator: TA1537, Metabolic Activation: NONE, Method: PREINCUBATION) was “inactive; negative”, the mutagenic call (Test System: AMES SALMONELLA TYPHIMURIUM, Strain/Indicator: TA1537, Metabolic Activation: RAT, LIVER, S-9, PHENOBARBITAL AND 5,6-BENZOFLAVONE, Method: PREINCUBATION) was “inactive; negative” and the mutagenic call (Test System: E. COLI, Strain/Indicator: WP2 UVRA, Metabolic Activation: NONE, Method: PREINCUBATION) was “inactive; negative”. For the same compound, the mutagenic call (Test System: E. COLI, Strain/Indicator: WP2 UVRA, Metabolic Activation: RAT, LIVER, S-9, PHENOBARBITAL AND 5,6-BENZOFLAVONE, Method: PREINCUBATION) was “inactive; negative”.
For CC(=O)Nc1ccc2[nH]c3ccccc3c2c1, the mutagenic call [1] was “inactive; negative”, the mutagenic call (Test System: AMES SALMONELLA TYPHIMURIUM, Strain/Indicator: TA98, Metabolic Activation: RAT, LIVER, S-9, PHENOBARBITAL, Method: STANDARD PLATE) was “active; positive” and the mutagenic call [2] was “inactive; negative”. The mutagenic call (Test System: AMES SALMONELLA TYPHIMURIUM, Strain/Indicator: TA100, Metabolic Activation: RAT, LIVER, S-9, PHENOBARBITAL, Method: STANDARD PLATE) was “inactive; negative”, the mutagenic call [3] was “inactive; negative” and the mutagenic call (Test System: AMES SALMONELLA TYPHIMURIUM, Strain/Indicator: TA1537, Metabolic Activation: RAT, LIVER, S-9, PHENOBARBITAL, Method: STANDARD PLATE) was “inactive; negative”. For the same compound, the mutagenic call [4] was “inactive; negative”, the mutagenic call (Test System: AMES SALMONELLA TYPHIMURIUM, Strain/Indicator: TA1538, Metabolic Activation: RAT, LIVER, S-9, PHENOBARBITAL, Method: STANDARD PLATE) was “active; positive” and the mutagenic call (Test System: AMES SALMONELLA TYPHIMURIUM, Strain/Indicator: TA1977, Metabolic Activation: NONE, Method: STANDARD PLATE) was “inactive; negative”. The mutagenic call (Test System: AMES SALMONELLA TYPHIMURIUM, Strain/Indicator: TA1977, Metabolic Activation: RAT, LIVER, S-9, PHENOBARBITAL, Method: STANDARD PLATE) was “inactive; negative”.
In the case of O=C1OC(=C(Cl)Cl)C=C1Cl, the mutagenic call [2] is reported as “active; positive”.
In the case of N[C@@H](Cc1cc(I)c(Oc2cc(I)c(O)c(I)c2)c(I)c1)C(=O)O, the mutagenic call (End Point: In vitro micronucleus, Test System: Human peripheral blood lymphocytes, Metabolic Activation: None) is reported as “inactive; negative”.
CCCCC/C=C/C=O was tested, and the mutagenic call (Test System: CHINESE HAMSTER V-79, Strain/Indicator: V-79/6-THIOGUANINE, Metabolic Activation: NONE, Method: STANDARD PLATE) was “active; positive” and the mutagenic call (Test System: CHINESE HAMSTER V-79, Strain/Indicator: V-79/OUABAIN, Metabolic Activation: NONE, Method: STANDARD PLATE) was “inactive; negative”.
In the case of c1ccc2c(c1)ccc1ccc3sccc3c12, the mutagenic call (Test System: Ames Salmonella typhimurium, Strain/Indicator: TA100, Metabolic Activation: None, Method: Plate incorporation) is reported as “active; positive” and the mutagenic call (Test System: Ames Salmonella typhimurium, Strain/Indicator: TA104, Metabolic Activation: None, Method: Plate incorporation) is reported as “inactive; negative”.
In the case of Cc1cc2c(cc1C)-c1ccccc1C2, the mutagenic call [5] is reported as “inactive; negative” and the mutagenic call [6] is reported as “inactive; negative”.
With O=C(CC(O)C(=O)OCCBr)OCCBr (stereo unspecified) the mutagenic call [1] was “inactive; negative”, the mutagenic call [2] was “inactive; negative” and the mutagenic call [6] was “active; positive”.
With CCN(CC)CC(O)CNc1c2ccc([N+](=O)[O-])cc2nc2cc(OC)c(OC)cc12 (stereo unspecified) the mutagenic call (Test System: Escherichia coli, Strain/Indicator: CC107 (G6 to B7 frameshifts), Metabolic Activation: None, Method: Modified preincubation) was “active; positive”, the mutagenic call (Test System: Escherichia coli, Strain/Indicator: CC108 (G6 to G5 frameshifts), Metabolic Activation: None, Method: Modified preincubation) was “active; positive” and the mutagenic call (Test System: Escherichia coli, Strain/Indicator: CC109 (CG5 to CG4 frameshifts), Metabolic Activation: None, Method: Modified preincubation) was “active; positive”. For the same compound, the mutagenic call (Test System: Escherichia coli, Strain/Indicator: CC111 (A7 to A6 frameshifts), Metabolic Activation: None, Method: Modified preincubation) was “inactive; negative”.
In the case of Cc1cc(C)c2cc(C)c(N)cc2n1, the mutagenic call (Test System: AMES SALMONELLA TYPHIMURIUM, Strain/Indicator: TA98, Method: STANDARD PLATE) is reported as “active; positive”.
In the case of C=CC(=O)OCCCCC, the mutagenic call [1] is reported as “inactive; negative”, the mutagenic call [5] is reported as “inactive; negative” and the mutagenic call (Test System: AMES SALMONELLA TYPHIMURIUM, Strain/Indicator: TA98, Metabolic Activation: RAT, LIVER, S-9, SODIUM PHENOBARBITAL, Method: STANDARD PLATE) is reported as “inactive; negative”. The mutagenic call [2] was “inactive; negative”, the mutagenic call [6] was “inactive; negative” and the mutagenic call (Test System: AMES SALMONELLA TYPHIMURIUM, Strain/Indicator: TA100, Metabolic Activation: RAT, LIVER, S-9, SODIUM PHENOBARBITAL, Method: STANDARD PLATE) was “inactive; negative”. The mutagenic call (Test System: AMES SALMONELLA TYPHIMURIUM, Strain/Indicator: TA1535, Metabolic Activation: NONE, Method: STANDARD PLATE) was “inactive; negative”, the mutagenic call (Test System: AMES SALMONELLA TYPHIMURIUM, Strain/Indicator: TA1535, Metabolic Activation: RAT, LIVER, S-9, AROCLOR 1254, Method: STANDARD PLATE) was “inactive; negative” and the mutagenic call (Test System: AMES SALMONELLA TYPHIMURIUM, Strain/Indicator: TA1535, Metabolic Activation: RAT, LIVER, S-9, SODIUM PHENOBARBITAL, Method: STANDARD PLATE) was “inactive; negative”. For the same compound, the mutagenic call [3] was “inactive; negative”, the mutagenic call (Test System: AMES SALMONELLA TYPHIMURIUM, Strain/Indicator: TA1537, Metabolic Activation: RAT, LIVER, S-9, AROCLOR 1254, Method: STANDARD PLATE) was “inactive; negative” and the mutagenic call (Test System: AMES SALMONELLA TYPHIMURIUM, Strain/Indicator: TA1537, Metabolic Activation: RAT, LIVER, S-9, SODIUM PHENOBARBITAL, Method: STANDARD PLATE) was “inactive; negative”. The mutagenic call [4] was “inactive; negative”, the mutagenic call (Test System: AMES SALMONELLA TYPHIMURIUM, Strain/Indicator: TA1538, Metabolic Activation: RAT, LIVER, S-9, AROCLOR 1254, Method: STANDARD PLATE) was “inactive; negative” and the mutagenic call (Test System: AMES SALMONELLA TYPHIMURIUM, Strain/Indicator: TA1538, Metabolic Activation: RAT, LIVER, S-9, SODIUM PHENOBARBITAL, Method: STANDARD PLATE) was “inactive; negative”.
